Patent publication US20090137664A1, “SAURURUS CERNUUS COMPOUNDS THAT INHIBIT CELLULAR RESPONSES TO HYPOXIA” (priority 2003, published 2009)
Read-outs that look alike come from different tables or passages of the source.

What was measured:
HIF-1β protein = assay: Western blot, HIF-1β protein in T47D nuclear extract; format: cell-based, human
Method: Due to the low abundance of HIF-1α protein in whole cell extract, nuclear extract is prepared and the level of HIF-1α protein in the nuclear extract determined by Western blot. Briefly, exponentially grown T47D cells are exposed to compound 2 for 30 minutes. […] Nuclear extracts are prepared from control and treated cells, separated on a SDS/PAGE gel, the separated proteins transferred to a nitrocellulose membrane, incubated with the primary antibodies (anti-HIF-1α, and anti-HIF-1β monoclonal antibodies, Novus Biologicals), secondary antibody biotinylated anti-mouse immunoglobulin G and Vectastain ABC reagent (Vector Laboratories), and developed using ECL reagents (Amersham Biosciences). […] No change in HIF-1β protein level is observed across the treatments. It is reasonable to conclude that the selectivity of compound 2 towards hypoxia-activated HIF-1 is caused by selective blockade of the hypoxic induction of HIF-1 protein.

secreted VEGF protein [1] = assay: induction of secreted VEGF protein by 1,10-phenanthroline in T47D cells (ELISA); format: cell-based, human; conditions: 10 μM, 16 hr
Method: Cell plating and compound treatment is similar to those described earlier for hypoxic conditions. […] At the end of the incubation, the concentration of secreted VEGF protein in the conditioned media is determined by ELISA and the data normalized by the number of viable cells.

[2] = T47D cell viability / cytotoxicity; format: cell-based, human; conditions: human; 100 μM; read-out: reduction of T47D cell viability
HIF-1 [3] = assay: pTK-HRE3-luc reporter assay, hypoxia-induced HIF-1 activation in T47D cells
secreted VEGF protein [4] = assay: hypoxic induction of secreted VEGF protein in T47D cells (ELISA); format: cell-based, human; conditions: for reduction of secreted VEGF protein induced by hypoxia: 96-well, 1 at 100 nM, 2 at 10 nM, PD98059 at 100 μM; for concentration at which hypoxic induction of secreted VEGF protein is completely blocked / inhibition of VEGF protein levels relative to the hypoxia-induced positive control: 12-well; for inhibition of VEGF protein levels relative to the hypoxia-induced positive control: p<0.01
Method: (§1) The effects of compounds 1 and 2 on hypoxic induction of secreted VEGF protein are examined in T47D cells. Exponentially grown T47D cells are plated at the density of 30,000 cells/well into 96-well plates. Compound treatment and hypoxic exposure are the same as described. Following incubation, the concentration of secreted VEGF protein in the conditioned media is determined by ELISA (R & D Systems) and the data normalized by the number of viable cells. Results shown in FIG. 4 are averages from a representative experiment performed in quadruplicate, the bars represent standard error. An asterisk (*) indicates the level of significance (p<0.01) relative to the hypoxic control, two asterisks (**) (p<0.0001), and no asterisk indicates no statistical difference (ANOVA and Fisher's PLSD post hoc test).
As discussed earlier, one important HIF-1 target gene is VEGF, a key factor for tumor angiogenesis. Compounds that can inhibit both HIF-1 activation and the production of secreted VEGF protein represent potential efficacious chemotherapeutic agents that inhibit both tumor survival and hypoxia induced angiogenesis. The effects of four active examples (compounds 2, 3, 4, and 5) on hypoxic induction of secreted VEGF protein are examined in T47D cells and the data are presented in FIG. 9. Exponentially grown T47D cells are plated at the density of 356,000 cells/well into 12-well plates. Compound treatment and hypoxic exposure are the same as described. Following incubation, the concentration of secreted VEGF protein in the conditioned media is determined by ELISA (R & D Systems) and the data normalized by the number of viable cells. […] Hypoxic exposure leads to a 2-fold increase in the level of secreted VEGF protein. […] The level of significance (p<0.01) is determined by ANOVA and Fisher's PLSD post hoc test. The exemplary compounds 2, 3, and 4 all completely block hypoxic induction of secreted VEGF protein at concentrations as low as 10 nM. The exemplary compound 5 inhibits the hypoxic induction by 60% at 10 nM, and completely blocks at 100 nM. When tested at 100 nM, none of the compounds interfere with the ELISA assay using VEGF standard (no greater than 15% difference).

pGL3 Control = assay: luciferase expression from control plasmid pGL3 Control; format: cell-based, human
Method: The chemical structures of active compounds 1 and 2 are shown above. Compound 2 is the known compound manassantin B and 1 is a novel compound of the present invention. […] Similar results are obtained from separate experiments. The IC50 is 3 nM for 2 and 30 nM for 1. Complete inhibition is observed at 10 nM for 2 and 100 nM for 1.

[5] = target: T1, recombinant VEGF protein standard (Homo sapiens, UniProt P15692); assay: interference with the VEGF ELISA using VEGF standard
T1 construct: purchased R & D Systems
T1 sequence (P15692 27-191 isoform P15692-4): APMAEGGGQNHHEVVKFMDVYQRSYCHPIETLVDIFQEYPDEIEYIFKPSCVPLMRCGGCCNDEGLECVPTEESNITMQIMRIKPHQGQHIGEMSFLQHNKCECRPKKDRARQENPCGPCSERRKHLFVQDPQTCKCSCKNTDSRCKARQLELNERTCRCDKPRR
Method: as §1
As discussed earlier, one important HIF-1 target gene is VEGF, a key factor for tumor angiogenesis. Compounds that can inhibit both HIF-1 activation and the production of secreted VEGF protein represent potential efficacious chemotherapeutic agents that inhibit both tumor survival and hypoxia induced angiogenesis. […] Following incubation, the concentration of secreted VEGF protein in the conditioned media is determined by ELISA (R & D Systems) and the data normalized by the number of viable cells. […] The level of significance (p<0.01) is determined by ANOVA and Fisher's PLSD post hoc test. […]

HIF-1 [6] = assay: pTK-HRE3-luc reporter assay, 1,10-phenanthroline-induced HIF-1 activation in T47D cells; format: cell-based; conditions: Homo sapiens, read-out: inhibition of HIF-1 activation by 1,10-phenanthroline, 1 μM
Excerpt: Iron chelators and transition metals (such as cobalt and nickel) can activate HIF-1 and have been used as chemical hypoxia mimetics. […] The expression of the HIF-1α subunit quantitatively determines HIF-1 biological activity (activation of transcription).

T47D cells = assay: T47D cell viability / cytotoxicity; format: cell-based, human

Compound: c1cnc2c(c1)ccc1cccnc12 [1,10-phenanthroline, reference compound]
- HIF-1β protein level (HIF-1β protein): no significant effect
- secreted VEGF protein level in T47D cells (secreted VEGF protein [1]): significantly induces

Compound: O=c1c(-c2ccc(O)cc2)coc2cc(O)cc(O)c12 [genistein, reference compound]
- cytotoxicity at 100 μM [2]: 50%
- concentration for 70% inhibition of hypoxic activation of HIF-1 (HIF-1 [3]): 10 µM
- IC50 (HIF-1 [3]; Homo sapiens, T47D, 16 h, read-out: IC50 for inhibition of hypoxia-induced HIF-1 activation): 1000 nM

Compound: COc1cc(C(O)C(C)Oc2ccc(C3OC(c4ccc(OC(C)C(O)c5ccc6c(c5)OCO6)c(OC)c4)C(C)C3C)cc2OC)ccc1O (stereo not drawn) [Compound 1]
- reduction of secreted VEGF protein induced by hypoxia (secreted VEGF protein [4]): statistically significant reduction
- luciferase expression from the pGL3-Control plasmid (pGL3 Control; 1,10-phenanthroline experiment (FIG. 5)): Neither compound exerts significant effect
- luciferase expression from the control plasmid (pGL3 Control) (pGL3 Control; hypoxia experiment (FIG. 3)): No statistically significant difference
- interference with the ELISA assay [5]: neither compound interferes
- inhibition at 1 µM (HIF-1 [6]): 45%
- IC50 (HIF-1 [3]; Homo sapiens, T47D, read-out: IC50, inhibition of hypoxic activation of HIF-1): 30 nM
- concentration at which complete inhibition of hypoxic activation of HIF-1 is observed (HIF-1 [3]; T47D, pHRE-luc assay): 100 nM

Compound: COc1ccc(C(O)C(C)Oc2ccc(C3OC(c4ccc(OC(C)C(O)c5ccc6c(c5)OCO6)c(OC)c4)C(C)C3C)cc2OC)cc1OC (stereo not drawn) [Compound 4]
- concentration at which hypoxic induction of secreted VEGF protein is completely blocked (secreted VEGF protein [4]): 10 nM
- inhibition of VEGF protein levels relative to the hypoxia-induced positive control (secreted VEGF protein [4]): significantly inhibit
- concentration at which complete inhibition of hypoxic activation of HIF-1 is observed (HIF-1 [3]; T47D, pHRE-luc assay): 10 nM

Compound: COc1ccc(C(O)C(C)Oc2ccc(C3OC(c4ccc(OC(C)C(O)c5ccc(OC)c(OC)c5)c(OC)c4)C(C)C3C)cc2OC)cc1OC (stereo not drawn) [Compound 3]
- concentration at which hypoxic induction of secreted VEGF protein is completely blocked (secreted VEGF protein [4]): 10 nM
- inhibition of VEGF protein levels relative to the hypoxia-induced positive control (secreted VEGF protein [4]): significantly inhibit
- concentration at which complete inhibition of hypoxic activation of HIF-1 is observed (HIF-1 [3]; T47D, pHRE-luc assay): 10 nM

Compound: COc1ccc(C(O)C(C)Oc2ccc(C3OC(c4ccc(OC)c(OC)c4)C(C)C3C)cc2OC)cc1OC (stereo not drawn) [Compound 5]
- concentration at which hypoxic induction of secreted VEGF protein is completely blocked (secreted VEGF protein [4]): 100 nM
- inhibition of VEGF protein levels relative to the hypoxia-induced positive control (secreted VEGF protein [4]): significantly inhibit
- inhibition at 0.01 µM (secreted VEGF protein [4]; Homo sapiens, 10 nM): 60%
- concentration at which complete inhibition of hypoxic activation of HIF-1 is observed (HIF-1 [3]; T47D, pHRE-luc assay): 100 nM

Compound: COc1cccc(-c2cc(=O)c3ccccc3o2)c1N [PD98059, reference compound]
- reduction of secreted VEGF protein induced by hypoxia (secreted VEGF protein [4]): only 1 and 2 treatments lead to statistically significant reduction
- cytotoxicity (T47D cells): no significant cytotoxicity
- concentration for 70% inhibition of hypoxic activation of HIF-1 (HIF-1 [3]): 10 µM
- concentration at which hypoxic activation of HIF-1 is completely inhibited (HIF-1 [3]; T47D, pHRE-luc assay): 100 µM
- IC50 (HIF-1 [3]; read-out: IC50 for inhibition of hypoxia-induced HIF-1 activation, T47D cells, hypoxic conditions 16 hr): 2000 nM
